Results: patent publication US8420667B2, “Isoquinolinone derivatives as NK3 antagonists” (H. Lundbeck A/S, priority 2008, dated 2013)

What was measured:
NK3 receptor [1] = biological target: T1, NK3 receptor (Homo sapiens, UniProt P29371); assay: NK3 receptor affinity (Ki); type: binding
T1 sequence (P29371 1-465): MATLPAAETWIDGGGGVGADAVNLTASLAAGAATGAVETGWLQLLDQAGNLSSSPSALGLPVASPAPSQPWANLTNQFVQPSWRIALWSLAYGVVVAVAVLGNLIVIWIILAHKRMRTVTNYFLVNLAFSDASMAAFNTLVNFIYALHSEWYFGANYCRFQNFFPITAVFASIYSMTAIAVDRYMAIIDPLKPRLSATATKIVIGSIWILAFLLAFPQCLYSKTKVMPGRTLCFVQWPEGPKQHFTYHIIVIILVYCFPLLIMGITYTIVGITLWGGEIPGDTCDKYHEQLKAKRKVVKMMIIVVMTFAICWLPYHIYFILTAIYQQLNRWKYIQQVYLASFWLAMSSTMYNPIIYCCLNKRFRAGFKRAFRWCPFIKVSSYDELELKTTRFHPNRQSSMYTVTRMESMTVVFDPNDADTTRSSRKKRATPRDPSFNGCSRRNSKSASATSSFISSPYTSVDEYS

NK3 receptor [2] = biological target: T1, NK3 receptor; settings: clinical trials; cited from earlier work

Row | Ki (NK3 receptor [1]) | Compound | effect on cognitive behaviour of schizophrenics (NK3 receptor [2])
1 | 250 nM | CC[C@H](NC(=O)c1c(C)n(-c2ccccc2)c(=O)c2c(Cl)cccc12)c1ccc(Cl)cc1 [Example 1as, 8-Chloro-3-methyl-1-oxo-2-phenyl-1,2-dihydro-isoquinoline-4-carboxylic acid [(S)-1-(4-chloro-phenyl)-propyl]-amide] | 
2 | 180 nM | CC[C@H](NC(=O)c1c(C)n(-c2ccccc2)c(=O)c2c(Cl)cccc12)c1ccc(F)cc1 [Example 1at, 8-Chloro-3-methyl-1-oxo-2-phenyl-1,2-dihydro-isoquinoline-4-carboxylic acid [(S)-1-(4-fluoro-phenyl)-propyl]-amide] | 
3 | 270 nM | CC[C@H](NC(=O)c1c(C)n(-c2ccccc2)c(=O)c2c(Cl)cccc12)c1ccccc1F [Example 1au, 8-Chloro-3-methyl-1-oxo-2-phenyl-1,2-dihydro-isoquinoline-4-carboxylic acid [(S)-1-(2-fluoro-phenyl)-propyl]-amide] | 
4 | 39 nM | CC[C@H](NC(=O)c1c(C)n(-c2ccccc2)c(=O)c2c(Cl)cccc12)c1cccc(Cl)c1 [Example 1av, 8-Chloro-3-methyl-1-oxo-2-phenyl-1,2-dihydro-isoquinoline-4-carboxylic acid [(S)-1-(3-chloro-phenyl)-propyl]-amide] | 
5 | 59 nM | Cc1c(C(=O)N[C@H](c2cccc(Cl)c2)C2CC2)c2cccc(Cl)c2c(=O)n1-c1ccccc1 [Example 1aw, 8-Chloro-3-methyl-1-oxo-2-phenyl-1,2-dihydro-isoquinoline-4-carboxylic acid [(S)-(3-chloro-phenyl)-cyclopropyl-methyl]-amide] | 
6 | 150 nM | Cc1c(C(=O)N[C@H](c2ccc(Cl)cc2)C2CC2)c2cccc(Cl)c2c(=O)n1-c1ccccc1 [Example 1ax, 8-Chloro-3-methyl-1-oxo-2-phenyl-1,2-dihydro-isoquinoline-4-carboxylic acid [(S)-(4-chloro-phenyl)-cyclopropyl-methyl]-amide] | 
7 | 47 nM | CC[C@H](NC(=O)c1c(C)n(-c2ccccc2)c(=O)c2c(Cl)cccc12)c1cccc(F)c1 [Example 1ay, 8-Chloro-3-methyl-1-oxo-2-phenyl-1,2-dihydro-isoquinoline-4-carboxylic acid [(S)-1-(3-fluoro-phenyl)-propyl]-amide] | 
8 | 55 nM | Cc1c(C(=O)N[C@H](c2ccc(F)cc2)C2CC2)c2cccc(Cl)c2c(=O)n1-c1ccccc1 [Example 1ba, 8-Chloro-3-methyl-1-oxo-2-phenyl-1,2-dihydro-isoquinoline-4-carboxylic acid [(S)-cyclopropyl-(4-fluoro-phenyl)-methyl]-amide] | 
9 | 240 nM | CC[C@H](NC(=O)c1c(C)n(-c2ccccc2)c(=O)c2c(Cl)cccc12)c1ccccc1Cl [Example 1bb, 8-Chloro-3-methyl-1-oxo-2-phenyl-1,2-dihydro-isoquinoline-4-carboxylic acid [(S)-1-(2-chloro-phenyl)-propyl]-amide] | 
10 | 49 nM | Cc1c(C(=O)N[C@H](c2ccccc2Cl)C2CC2)c2cccc(Cl)c2c(=O)n1-c1ccccc1 [Example 1bd, 8-Chloro-3-methyl-1-oxo-2-phenyl-1,2-dihydro-isoquinoline-4-carboxylic acid [(S)-(2-chloro-phenyl)-cyclopropyl-methyl]-amide] | 
11 | 45 nM | Cc1c(C(=O)N[C@H](c2ccccc2F)C2CC2)c2cccc(Cl)c2c(=O)n1-c1ccccc1 [Example 1be, 8-Chloro-3-methyl-1-oxo-2-phenyl-1,2-dihydro-isoquinoline-4-carboxylic acid [(S)-cyclopropyl-(2-fluoro-phenyl)-methyl]-amide] | 
12 | 31 nM | Cc1c(C(=O)N[C@H](c2cccc(F)c2)C2CCC2)c2cccc(Cl)c2c(=O)n1-c1ccccc1 [Example 1bh, 8-Chloro-3-methyl-1-oxo-2-phenyl-1,2-dihydro-isoquinoline-4-carboxylic acid [(S)-cyclobutyl-(3-fluoro-phenyl)-methyl]-amide] | 
13 | 31 nM | Cc1c(C(=O)N[C@H](c2ccc(F)cc2)C2CCC2)c2cccc(Cl)c2c(=O)n1-c1ccccc1 [Example 1bi, 8-Chloro-3-methyl-1-oxo-2-phenyl-1,2-dihydro-isoquinoline-4-carboxylic acid [(S)-cyclobutyl-(4-fluoro-phenyl)-methyl]-amide] | 
14 | 810 nM | Cc1c(C(=O)N[C@@H](c2cccc(F)c2)C2CC2)c2cccc(Cl)c2c(=O)n1-c1ccccc1 [Example 1bl, 8-Chloro-3-methyl-1-oxo-2-phenyl-1,2-dihydro-isoquinoline-4-carboxylic acid [(R)-cyclopropyl-(3-fluoro-phenyl)-methyl]-amide] | 
15 | 150 nM | Cc1c(C(=O)NC(c2ccccc2F)C2CCC2)c2cccc(Cl)c2c(=O)n1-c1ccccc1 (stereo not drawn) [Example 1bo, 8-Chloro-3-methyl-1-oxo-2-phenyl-1,2-dihydro-isoquinoline-4-carboxylic acid [cyclobutyl-(2-fluoro-phenyl)-methyl]-amide] | 
16 | 15 nM | Cc1c(C(=O)N[C@H](c2cccc(F)c2)C2CC2)c2cccc(F)c2c(=O)n1-c1ccccc1 [Example 7e, 8-Fluoro-3-methyl-1-oxo-2-phenyl-1,2-dihydro-isoquinoline-4-carboxylic acid [(S)-cyclopropyl-(3-fluoro-phenyl)-methyl]-amide] | 
17 | 10 nM | Cc1c(C(=O)N[C@H](c2cccc(F)c2)C2CCC2)c2cccc(F)c2c(=O)n1-c1ccccc1 [Example 7h, 8-Fluoro-3-methyl-1-oxo-2-phenyl-1,2-dihydro-isoquinoline-4-carboxylic acid [(S)-cyclobutyl-(3-fluoro-phenyl)-methyl]-amide] | 
18 |  | CC[C@H](NC(=O)c1c(O)c(-c2ccccc2)nc2ccccc12)c1ccccc1 [talnetant] | ameliorate the cognitive behaviour of schizophrenics
